Some test systems named below: DLD-1 colon; SNB-78 CNS; KM20L2 colon; HOP-18 NSCLC; LXFL 529 NSCLC; DMS 114 small cell lung; DMS 273 small cell lung; BT-549 breast; MDA-MB-231 breast; MCF7 breast; T-47D breast.
Assay in all cases: inhibition of tumour cell growth, NCI panel, 48 h

“And” between values parts separate entries of the source, which are not always exact repeats. Equal values may be shown once.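 Dose response: 5 concentrations. Exposure: 48 h. Format: 96-well plates. Endpoint: linear interpolation; highest concentration if not reached. GI50 = concentration required for 50% inhibition of growth. TGI denotes the concentration required for complete inhibition of growth.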 Where only a bound is given, the exact number is not on record here.

With `COS(=O)c1cc(Cl)cc(Cl)c1OC(=O)CSSCC(=O)Oc1c(Cl)cc(Cl)cc1S(=O)OC` (stereo unspecified), the TGI in the assay with DLD-1 colon is 40.7 µM; in the assay on SNB-78 CNS, 76.2 µM; with KM20L2 colon it was 67.2 µM; with HOP-18 NSCLC, greater than 100 µM; in the assay on LXFL 529 NSCLC, 47.6 µM; in the assay with DMS 114 small cell lung it was 35.3 µM. In addition, in the assay on DMS 273 small cell lung, the TGI was 32.7 µM.

Take `CNC(=O)OCc1nc(SSc2nc(COC(=O)NC)c(COC(=O)NC)n2C)n(C)c1COC(=O)NC`: the TGI in the assay on DLD-1 colon, in the assay on SNB-78 CNS, in the assay on KM20L2 colon, in the assay on HOP-18 NSCLC, in the assay on LXFL 529 NSCLC and in the assay on DMS 114 small cell lung was greater than 100 µM in each case. In the assay on DMS 273 small cell lung, this compound had a TGI greater than 100 µM.

Consider `CCOC1c2nc3ccccc3nc2-c2ccccc2N1C(C)=O` (stereo unspecified), for which the TGI in the assay on DLD-1 colon, in the assay on SNB-78 CNS, in the assay on KM20L2 colon, in the assay with HOP-18 NSCLC, in the assay with LXFL 529 NSCLC and in the assay with DMS 114 small cell lung was greater than 100 µM each time. For the same compound, the TGI in the assay with DMS 273 small cell lung is greater than 100 µM.

As for `O=C(O)c1ccccc1C(=O)c1ccco1`, the TGI in the assay with DLD-1 colon, in the assay with SNB-78 CNS, with KM20L2 colon, with HOP-18 NSCLC, in the assay with DMS 114 small cell lung and in the assay with DMS 273 small cell lung was greater than 100 µM in each case.

For the compound `C[n+]1cn(CC(=O)c2ccccc2)c(C(N)=O)c1N`, the TGI was greater than 100 µM with DLD-1 colon; greater than 100 µM with SNB-78 CNS; greater than 100 µM with KM20L2 colon; greater than 100 µM in the assay on HOP-18 NSCLC; greater than 100 µM with LXFL 529 NSCLC; 64.6 µM in the assay with DMS 114 small cell lung. The same compound had a TGI in the assay on DMS 273 small cell lung greater than 100 µM.

For the compound `CCCCCCCCCCCCCC(=O)O[C@H]1CC[C@H](NC(=O)[C@H](OC)[C@H](O)[C@@H](O)[C@H](O)/C=C/C(C)C)C(=O)N(C)C1`, the GI50 in the assay on DLD-1 colon was 0.00278 µM; in the assay on KM20L2 colon it was less than 0.0015 µM; with HOP-18 NSCLC, 11.3 µM; with LXFL 529 NSCLC it was 0.00238 µM. Besides, the TGI in the assay with DLD-1 colon is 15 µM and > 23.8 µM; in the assay on SNB-78 CNS, 15 µM; in the assay with KM20L2 colon, 15 µM and 3.8 µM; in the assay on HOP-18 NSCLC, 15 µM and > 23.8 µM; with LXFL 529 NSCLC, 15 µM and 3.94 µM; with DMS 114 small cell lung it was 0.817 µM. In the assay with DMS 273 small cell lung, this compound displayed a TGI of 0.00403 µM.

Take `O=C1OC(=O)c2c1nc1ccccc1c2-c1ccccc1`: the TGI in the assay on DLD-1 colon, in the assay with SNB-78 CNS, in the assay on KM20L2 colon, in the assay on HOP-18 NSCLC, in the assay on LXFL 529 NSCLC and with DMS 114 small cell lung was greater than 100 µM throughout. The TGI in the assay with DMS 273 small cell lung is greater than 100 µM.

Take `CN1CCCc2nc3ccccc3n2C1`: the TGI in the assay with DLD-1 colon, with SNB-78 CNS, in the assay on KM20L2 colon, in the assay on HOP-18 NSCLC, with LXFL 529 NSCLC and in the assay on DMS 114 small cell lung was greater than 100 µM each time. This compound returned a TGI in the assay with DMS 273 small cell lung greater than 100 µM.

With `O=[N+]([O-])c1cccnc1S(=O)(=O)c1ccccc1`, the TGI with DLD-1 colon was determined as 7.27 µM; in the assay on SNB-78 CNS, 44 µM; in the assay on KM20L2 colon, 30.3 µM; with HOP-18 NSCLC it was 25.7 µM; in the assay on LXFL 529 NSCLC, 5.87 µM; in the assay with DMS 114 small cell lung, 8.53 µM. Also, in the assay on DMS 273 small cell lung, the TGI was 21.3 µM.

As to `C/C(=N\NC(=S)N1CCC1)c1ccccn1`, the TGI with DLD-1 colon is greater than 100 µM; in the assay with SNB-78 CNS, greater than 100 µM; in the assay on BT-549 breast, 73.3 µM; in the assay on KM20L2 colon, greater than 100 µM; with HOP-18 NSCLC it was greater than 100 µM; in the assay on LXFL 529 NSCLC it was greater than 100 µM. Moreover, the TGI was greater than 100 µM with MDA-MB-231 breast, 0.00635 µM with MCF7 breast, 1.82 µM in the assay with DMS 273 small cell lung and greater than 100 µM in the assay with T-47D breast. Also, the GI50 in the assay on T-47D breast was 0.0395 µM.

`N#Cc1ccccc1Sc1ccccc1N`: the TGI with DLD-1 colon, in the assay with SNB-78 CNS, with HOP-18 NSCLC, with LXFL 529 NSCLC, in the assay on DMS 114 small cell lung and in the assay on DMS 273 small cell lung was greater than 100 µM throughout.

In the case of `Cc1ccc(-n2c3nc(=O)n(C)c(=O)c-3nc3ccccc32)c(C)c1`, the TGI with DLD-1 colon came out at 39.9 µM; in the assay on SNB-78 CNS it was 44.5 µM; with KM20L2 colon, 17.6 µM; with HOP-18 NSCLC it was 20.1 µM; in the assay with LXFL 529 NSCLC, 24.8 µM; with DMS 273 small cell lung, 18.5 µM.

Consider `O=C1C=CC2(O)OCC3C=C4O[C@@H]5OC6(CCCCC6)O[C@@H]5C4[C@@H]2[C@@H]13` (stereo partly specified), for which the TGI was 50.6 µM in the assay with DLD-1 colon; 83.3 µM with SNB-78 CNS; greater than 100 µM in the assay on KM20L2 colon; greater than 100 µM in the assay with HOP-18 NSCLC; 29.7 µM in the assay on LXFL 529 NSCLC; 69.2 µM in the assay on DMS 114 small cell lung. This compound gave a TGI in the assay with DMS 273 small cell lung greater than 100 µM.

`CCCC(O)[C@@]1(CC)CC(C)C(O)(C2(C)C[C@H](C)[C@@H](C(CC)C(=O)C(C)[C@@H](O)[C@H](C)C3OC(O)(C(CC)C(=O)O)[C@@H](C)C(O)C3CC)O2)O1` (stereo partly specified): the TGI with DLD-1 colon is 8.86 µM; in the assay on SNB-78 CNS, 31.7 µM; with BT-549 breast, 1.41 µM; in the assay with KM20L2 colon, 4.13 µM; in the assay on HOP-18 NSCLC it was 23.9 µM; in the assay on LXFL 529 NSCLC, 3.91 µM. Moreover, the TGI in the assay with MDA-MB-231 breast stood at 2.11 µM; with DMS 114 small cell lung, 1.08 µM; in the assay on MCF7 breast, 2.17 µM; in the assay with DMS 273 small cell lung, 5.93 µM.

As for `O=C([O-])c1ccc([I+]c2ccccc2)cc1`, the TGI with DLD-1 colon, with SNB-78 CNS, in the assay on KM20L2 colon, in the assay with HOP-18 NSCLC, in the assay on LXFL 529 NSCLC and in the assay with DMS 114 small cell lung was greater than 100 µM in each case. In the assay with DMS 273 small cell lung, this compound displayed a TGI greater than 100 µM.

For `O=c1c2ccccc2nc(-c2cccc(Cl)c2)n1NC1OC(CO)C(O)C(O)C1O` (stereo unspecified), the TGI with SNB-78 CNS, with KM20L2 colon, in the assay with HOP-18 NSCLC, in the assay on LXFL 529 NSCLC, in the assay with DMS 114 small cell lung and in the assay on DMS 273 small cell lung was greater than 100 µM each time.

For `CCOC(=O)C1C(c2ccc(Br)cc2)N(Cc2ccccc2)C(c2ccc(Br)cc2)C(C(=O)OC)S1(=O)=O` (stereo unspecified), the TGI was greater than 100 µM with DLD-1 colon; greater than 100 µM in the assay with SNB-78 CNS; greater than 100 µM in the assay with KM20L2 colon; 72.9 µM with HOP-18 NSCLC; greater than 100 µM with LXFL 529 NSCLC; greater than 100 µM in the assay on DMS 114 small cell lung. Besides, the TGI in the assay on DMS 273 small cell lung was greater than 100 µM.

For the origin of these results see PubChem BioAssay (NCI).
